What was measured:
Assay in all cases: relative viability (nuclei count vs DMSO), 5 days (fraction); higher = more cells survive
Pazopanib + Phenformin = compound: Cc1ccc(Nc2nccc(N(C)c3ccc4c(C)n(C)nc4c3)n2)cc1S(N)(=O)=O [Pazopanib] + N=C(N)NC(=N)NCCc1ccccc1 [Phenformin] (partner 250 µM)
Summary of the method: (§1)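 Lung cancer cell lines in 1536-well plates got either a single drug or a fixed anchor-drug dose together with five library-drug doses (not always all listed) in √10 steps, by pin tool, on the day after seeding. Nuclei were counted after 5 days, and relative viability is the treated-to-vehicle ratio of nuclei counts. Values are medians of duplicate plates.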

Pazopanib = compound: Cc1ccc(Nc2nccc(N(C)c3ccc4c(C)n(C)nc4c3)n2)cc1S(N)(=O)=O [Pazopanib]
Summary of the method: (§2)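 Following overnight incubation at 37 °C, lung cancer cell lines in 1536-well plates were pinned with five library-drug doses (not always all listed) in √10 steps on vehicle-anchored plates. The cells then spent 5 days without medium change before a combined fix, permeabilisation and Hoechst stain, 4× imaging and MetaXpress nuclear counts. Viability is the treated-to-vehicle ratio of nuclei, taken as the median across plates. Only plates with control CV below 25% and at least one doubling passed.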

Ponatinib = compound: Cc1ccc(C(=O)Nc2ccc(CN3CCN(C)CC3)c(C(F)(F)F)c2)cc1C#Cc1cnc2cccnn12 [Ponatinib]
Summary of the method: as §2

Ponatinib + Navitoclax = compound: Cc1ccc(C(=O)Nc2ccc(CN3CCN(C)CC3)c(C(F)(F)F)c2)cc1C#Cc1cnc2cccnn12 [Ponatinib] + CC1(C)CCC(c2ccc(Cl)cc2)=C(CN2CCN(c3ccc(C(=O)NS(=O)(=O)c4ccc(N[C@H](CCN5CCOCC5)CSc5ccccc5)c(S(=O)(=O)C(F)(F)F)c4)cc3)CC2)C1 [Navitoclax] (partner 0.5 µM)
Summary of the method: as §1

Cell Line	relative viability (Pazopanib + Phenformin; first compound 0.01 µM)	relative viability (Pazopanib + Phenformin; first compound 0.03162 µM)	relative viability (Pazopanib + Phenformin; first compound 0.1 µM)	relative viability (Pazopanib + Phenformin; first compound 0.3162 µM)	relative viability (Pazopanib + Phenformin; first compound 1 µM)	relative viability (Pazopanib; 0.01 µM)	relative viability (Pazopanib; 0.03162 µM)	relative viability (Pazopanib; 0.1 µM)	relative viability (Pazopanib; 0.3162 µM)	relative viability (Pazopanib; 1 µM)	relative viability (Ponatinib; 0.002 µM)	relative viability (Ponatinib; 0.006325 µM)	relative viability (Ponatinib; 0.06325 µM)	relative viability (Ponatinib; 0.2 µM)	relative viability (Ponatinib + Navitoclax; first compound 0.002 µM)	relative viability (Ponatinib + Navitoclax; first compound 0.006325 µM)	relative viability (Ponatinib + Navitoclax; first compound 0.06325 µM)	relative viability (Ponatinib + Navitoclax; first compound 0.2 µM)
NCI-H2342	0.501	0.635	0.538	0.572	0.569	0.687	0.945	0.957	0.883	0.852	0.958	0.946	1.01	0.999	–	–	–	–
HCC-15	0.476	0.507	0.498	0.519	0.505	0.837	0.987	1.02	1.06	1.03	0.972	1.06	1.1	1.02	0.671	0.738	0.83	0.661
A-427	0.309	0.4	0.286	0.332	0.288	0.863	1.12	0.885	1	1.14	0.928	1.05	0.958	0.81	0.916	0.971	1.07	0.854
NCI-H2228	0.366	0.366	0.324	0.443	0.313	0.964	1	1.03	0.973	1.04	0.828	0.991	1.07	0.895	1.18	1.01	1.43	0.811
NCI-H1734	0.353	0.416	0.417	0.495	0.418	0.776	1.03	1.11	1.13	1.12	0.938	0.974	1	0.871	0.805	0.828	0.877	0.739
NCI-H2347	0.218	0.385	0.38	0.468	0.377	0.932	1	0.98	1.05	1.04	0.977	1	1.19	0.977	0.684	0.834	0.899	0.719
PC-3 [JPC-3]	0.52	0.465	0.513	0.472	0.478	1.13	1.05	1.09	1.02	1.01	0.932	1.05	1.15	1.03	0.792	0.754	0.902	0.748
NCI-H1915	0.402	0.364	0.367	0.36	0.343	0.915	1.02	0.995	0.961	0.894	0.906	1	0.986	0.971	0.779	0.795	0.772	0.746
NCI-H1666	0.576	0.581	0.575	0.613	0.67	0.989	1	1.01	0.976	1.07	0.919	0.977	1.11	1.04	0.94	1.15	1.18	0.979
HCC-366	0.566	0.642	0.547	0.608	0.638	0.922	0.989	1.03	1	1.1	1.03	1.04	1.05	0.989	1.03	1.02	1.14	0.966
NCI-H1395	0.384	0.441	0.454	0.511	0.51	0.848	1.03	0.825	1.1	1.2	0.675	0.934	0.91	0.708	–	1.15	1.09	0.977
NCI-H727	0.455	0.522	0.57	0.584	0.682	0.841	0.907	0.91	1	1.16	0.883	0.855	1.2	0.872	0.612	0.53	0.472	0.523
RERF-LC-KJ	0.445	0.419	0.43	0.417	0.417	1.11	1.03	0.984	0.919	0.969	0.926	1.01	1.05	0.965	1.09	0.968	1.07	1.06
NCI-H1623	0.584	0.541	0.58	0.574	0.595	0.964	0.909	0.885	1.06	0.929	0.991	1.05	1.01	0.969	–	–	–	–
Calu-6	–	–	–	–	–	0.99	1.07	1.04	1.01	0.974	0.987	0.967	1.02	0.905	0.828	0.682	0.941	0.717
LC-2-ad	0.618	0.649	0.584	0.689	0.685	1	0.99	1.01	1.07	1.07	0.85	0.885	0.785	0.768	0.482	0.419	0.49	0.349
